One may read the IC50 as the concentration that gives 50% inhibition. A high value points to a need for much substance. The term Kd denotes the free concentration of one partner at which half of the binding sites on the other are occupied at equilibrium, for simple one-to-one binding. A word on the LD50: it is the dose at which mortality reaches 50%.

“Also recorded” adds a separate entry of the source.

The test system of one series is U87-TxR. Nature of the series: MTT cell growth inhibition, MDR U87-TxR. Format: cell-based, Human. The settings on record: 72 h, n = 3. The method, then:
(§1) Human GBM cell lines U87 and LN-229 were purchased from the American Type Culture Collection, Rockville, MD, USA. U87-TxR cells were selected from U87 cells by continuous exposure to increasing concentrations of PTX [76]. LN-299, U87 and U87-TxR cells were grown in Minimum Essential Medium with 10% fetal bovine serum, 2 mM L-glutamine and 5000 U/mL penicillin, 5 mg/mL streptomycin solution. Cell lines were maintained at 37 °C in a humidified 5% CO2 atmosphere. They were sub-cultured at 72 h intervals using 0.25% trypsin/EDTA and 16,000 cells/cm^2 were seeded into a fresh medium.
(§2) MTT assay was used to assess the viability of U87 and U87-TxR cells (AppliChem GmbH, Taufkirchen, Germany). After reaching the confluence in 25 cm^2 tissue flasks, U87 and U87-TxR cells were trypsinized. Cells were seeded at the optimal density determined in initial experiments: 4000 cell/well into flat-bottomed 96-well tissue culture plates. Following the overnight incubation, cells were treated with Si306, pro-Si306 and dasatinib (1–25 µM) for 72 h. In addition, the combined effects of Si306 and pro-Si306 with PTX were evaluated in MDR GBM cells. To that end, two concentrations of Si306 and pro-Si306 (0.2 μM and 0.5 μM) were combined with increasing concentrations of PTX (0.1–2 μM) in simultaneous treatment. The sensitization of U87-TxR cells to PTX was studied after 72 h. Briefly, MTT was added to each well in a final concentration of 0.2 mg/mL for 4 h to induce the formation of the formazan in cells with intact/viable mitochondria. Then, produced formazan was dissolved in DMSO, and the absorbance was measured at 540 nm on a microplate reader (LKB 5060-006 Micro Plate Reader, Vienna, Austria). IC50 values were calculated by nonlinear regression analysis using GraphPad Prism 6.0 for Windows (GraphPad Software, La Jolla, CA, USA).

The test system of the next series is A172. The series is described as follows: Cell viability, A172 (Table S1). Format: cell-based. The note with it: Homo sapiens, A 172; A172, 72 h. Here is the method:
(§3) 1. Cell Growth Inhibition by Dasatinib, Si306 and Pro-Si306
(§4) GB cell lines BT138, T98G and A172 were treated with Si306 and pro-Si306 at concentrations ranging from 1 to 100 µM, or with DMSO as a control. Cell viability was evaluated 72 h after treatment for T98G and A172 cell lines and after 24 h for BT-138. In table S1 the IC50 values are reported.
(§5) Table S1. Sensitivity of glioblastoma multiforme (GBM) cells to Si306 and pro-Si306 expressed as IC50 […]
(§6) Figure S1. Rho 123 accumulation in U87-TxR cells treated with increasing concentrations of TQ (A), Dex-VER (B), Si306 (C) and pro-Si306 (D).
(§7) (1 picture or pasted object on this page, not shown here)

In series [1] the test system is Alpha-1-acid glycoprotein (AGP). The series is described as follows: Binding fluorimetric assay, AGP. It is filed as in vitro ADME. The settings on record: 10 µM AGP, fluorescence quenching. The method, then:
In order to determine the binding affinity for Si306 and pro-Si306 to HSA (human serum albumin) and AGP (alpha-1-acid glycoprotein), the protein fluorescence has been monitored by spectroscopy. The quantitative analysis was performed using black 96 multiwell plates: in each well, a fixed concentration of HSA or AGP (10 µM in phosphate buffer 1 mM) was added with different amounts of the tested compound (0.1 µM to 500 µM). Plates were gently shacked and after 30 min at room temperature for equilibration, spectra were recorded from 300 to 400 nm, after excitation at 295 nm, by using a Perkin Elmer EnVision Multilabel Reader 2014 spectrofluorimeter. Finally, spectra were acquired with EnVision Manager ver.1.13 software (Walthman, MA, USA). The obtained non fluorescence quenching percentages were plotted against drug concentrations and the relative KD values were calculated using GraphPad software (version 6.0).

Another series has as its system U87. The series is described as follows: MTT cell growth inhibition, U87. It is filed as cell-based, Human. The note with it: 72 h, n = 3. Here is the method: as §1, §2
The next series deals with LN-229. Nature of the series: MTT cell growth inhibition, LN-229. It is filed as cell-based, Human. The settings on record: LN-229, MTT, n = 3.
Another series relates to BT-138. The series is described as follows: Cell viability, BT-138 (Table S1). The note with it: BT-138, 24 h. It is filed as cell-based. The method, then: as §3, §4, §5, §6, §7
Details of series [2]: method as in PMID 28650650. The note with it: cited from earlier work.
For a further series, the system named is T98G. Nature of the series: Cell viability, T98G (Table S1). Format: cell-based. The note with it: Homo sapiens, 72 h. The method, then: as §3, §4, §5, §6, §7
A short description of series [3]: Acute toxicity study in mice (single i.v. dose). Format: in vivo, BALB/c mice. Here is the method: Male BALB/c mice (20 ± 2) g, supplied by Harlan Italy S.r.l., San Pietro al Natisone, Udine, Italy, were acclimated at 25 °C and 55% of humidity under natural light/dark conditions for 1 week before the proposed experiments. Animal welfare was routinely checked by veterinarians of the Service for Animal Welfare and all efforts were made to minimize suffering.
The study design includes three groups of five mice each. All mice were injected with compound through the tail vein in a single systemic dose (0.05 mL per dose). The test compound was solubilized in PBS/25% DMSO. The first group was treated with dose levels of 50 mg/kg; the second received a high-dose level of 100 mg/kg, whereas the third was inoculated with the only vehicle as the control. All mice were monitored for survival and the presence of any drug-related adverse effect (local signs of inflammation, weight loss, diarrhea, and behavioral alterations) throughout the experimental period. Mice were sacrificed 4 days after treatment, and liver, kidney, and brain tissue specimens were aseptically removed, fixed in 4% formaldehyde solution, and processed for paraffin embedding. Histopathological changes in tissue specimens were evaluated in 10 randomly selected tissue sections from each organ for all the samples. Sections cut at 2 μm were stained with hematoxylin and eosin (H&E) and analyzed by a pathologist with an optical microscope (Leica, Wetzlar, Germany).

In a further series the target is P-gp (Homo sapiens, UniProt P08183). Nature of the series: Rho 123 accumulation assay (P-gp inhibition) in U87-TxR cells. The settings on record: 30 min.
Chain of P-gp (P08183 whole entry): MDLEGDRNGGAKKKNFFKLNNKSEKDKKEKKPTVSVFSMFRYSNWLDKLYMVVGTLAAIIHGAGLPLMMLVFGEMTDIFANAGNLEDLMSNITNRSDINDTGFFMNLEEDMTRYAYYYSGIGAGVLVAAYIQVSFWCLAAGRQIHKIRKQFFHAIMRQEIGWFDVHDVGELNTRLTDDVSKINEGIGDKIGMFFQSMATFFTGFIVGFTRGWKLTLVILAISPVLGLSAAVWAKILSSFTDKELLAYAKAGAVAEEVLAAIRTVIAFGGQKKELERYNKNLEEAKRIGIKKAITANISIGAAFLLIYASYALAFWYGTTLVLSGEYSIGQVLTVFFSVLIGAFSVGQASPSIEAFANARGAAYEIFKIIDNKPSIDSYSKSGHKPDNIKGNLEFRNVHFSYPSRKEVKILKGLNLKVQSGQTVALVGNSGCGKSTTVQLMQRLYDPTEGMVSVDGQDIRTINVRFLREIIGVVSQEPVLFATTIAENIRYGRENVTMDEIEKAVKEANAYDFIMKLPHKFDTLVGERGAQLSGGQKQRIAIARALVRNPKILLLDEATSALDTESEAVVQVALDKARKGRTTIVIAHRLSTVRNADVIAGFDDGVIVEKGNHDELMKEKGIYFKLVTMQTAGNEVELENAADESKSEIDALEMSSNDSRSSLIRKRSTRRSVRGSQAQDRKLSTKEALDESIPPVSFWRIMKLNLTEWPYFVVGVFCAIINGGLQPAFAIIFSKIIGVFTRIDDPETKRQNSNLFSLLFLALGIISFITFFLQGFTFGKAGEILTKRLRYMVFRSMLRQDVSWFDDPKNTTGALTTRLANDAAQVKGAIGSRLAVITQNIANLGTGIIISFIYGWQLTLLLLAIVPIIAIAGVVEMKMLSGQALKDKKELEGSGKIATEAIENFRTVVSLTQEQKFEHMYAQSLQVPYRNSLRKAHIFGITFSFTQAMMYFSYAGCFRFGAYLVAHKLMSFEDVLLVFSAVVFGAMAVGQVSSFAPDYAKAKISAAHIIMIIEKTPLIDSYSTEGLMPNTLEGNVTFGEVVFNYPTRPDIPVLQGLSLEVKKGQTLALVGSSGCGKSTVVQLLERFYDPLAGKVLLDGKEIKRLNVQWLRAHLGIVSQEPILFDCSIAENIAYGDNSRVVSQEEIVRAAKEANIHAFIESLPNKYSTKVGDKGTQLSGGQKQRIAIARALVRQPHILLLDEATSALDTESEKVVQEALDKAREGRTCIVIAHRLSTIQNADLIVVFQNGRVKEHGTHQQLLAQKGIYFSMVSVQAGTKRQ
A further series has as its system U87-TxR cells. Nature of the series: Reversal of paclitaxel resistance, MTT combination treatment. Format: cell-based, Human. The settings on record: 0.2 µM of the compound, 72 h. Here is the method: as §2

Procedure for P-gp: At the end of the accumulation period, the cells were pelleted by centrifugation, washed with PBS and placed in cold PBS. The samples were kept on ice in a dark setting until the analysis on CyFlow Space Partec flow-cytometer (Sysmex Partec GmbH, Germany). […] A minimum of 10,000 events was assayed for each sample and the obtained results were analyzed using Summit Dako Software (ver. 4.3, Fort Collins, CO, USA).

Turning to `ClC(Cn1ncc2c(Nc3cccc(Br)c3)nc(SCCN3CCOCC3)nc21)c1ccccc1` (centres unmarked) [Si306], the IC50 with U87-TxR is 4.78 ± 0.322 µM; with U87-TxR (Homo sapiens, U87-TxR), 4.8 µM; in the series on A172, 1.69 ± 0.6 µM; with U87 it was 3.08 ± 0.26 µM; in the series on U87 (Homo sapiens, U-87 MG), ~3 µM; in the series on LN-229 (Homo sapiens, LN-229, 72 h) it was 8 µM. The IC50 in the series on LN-229 (72 h) amounted to 8.01 ± 0.574 µM; with BT-138, 72.6 ± 6.21 µM; in the series with T98G, 0.46 ± 0.02 µM; at P-gp (IC50 of P-gp inhibition, Rho 123 accumulation), 8.5 µM. Besides, the BMAX in [1] was 88.38 ± 1.8. Besides, the Kd at 30 min in series [1] (alpha-1-acid glycoprotein (10 µM) in phosphate buffer) was 11.5 ± 1 µM. Besides, the solubility entry in series [2] is “very poorly water soluble”. The “microscopic alterations in liver, kidney and central nervous system” value in series [3] (50 and 100 mg/kg i.v., 4 days after treatment, H&E) is “No microscopic alterations”. Further, the treatment-related mortality result in series [3] (limit test dose 100 mg/kg, i.v., four days observation) is reported as “did not produce treatment-related mortality”. Moreover, the LD50 at 4 days in series [3] (male, BALB/c, mouse, in vivo, iv, single dose, mice) is > 100 mg/kg. The “behavior (apathy, hyperactivity, vomiting, diarrhea, morbidity)” value in [3] (up to 100 mg/kg i.v., four days observation) is on record as “no significant changes occurred in the behavior”. For the same molecule, the body weights result in [3] (up to 100 mg/kg i.v., recorded daily) is recorded as “no significant changes”. Moreover, the “P-gp activity (Rho 123 intracellular accumulation)” value at P-gp (5 µM) was “considerably inhibited P-gp activity; also recorded: significant suppression of P-gp activity”. The “Relative Reversal of PTX resistance” value in the series with U87-TxR cells is 1.16 ^ns.

The record behind these values is publication PMC6628362, “A New Strategy for Glioblastoma Treatment: In Vitro and In Vivo Preclinical Characterization of Si306, a Pyrazolo[3,4-d]Pyrimidine Dual Src/P-Glycoprotein Inhibitor” (Cancers, 2019).
